Holding throughout (format): in vivo
The test system of assay [1] is healthy human subjects. The experiment in a line: PET with FDG: cerebral glucose metabolism (CMRglu) under behavioral clamp, drug versus placebo.
Assay [2] concerns healthy human subjects. The assay is described as follows: visual monitoring task (VMT): reaction time and accuracy.
From the text: (§1) Ninety minutes after administration of fluoxetine or placebo, subjects were repositioned in the PET scanner and a visual monitoring task (VMT) was initiated. The task assured a stable behavioral condition at the time of testing. Each subject was asked to press a button with his or her right thumb every time a dim light (50% of trials) was presented on a screen mounted in front of him or her and was asked to ignore every bright light (50%). The lights were presented under computer control at random intervals ranging from 4 to 7 sec. Each subjected completed four blocks of 96 trials each (approximately 10 min per block). Subjects also completed the Profile of Mood States (POMS) before the capsule and 20 min after injection of FDG.
Assay [3] concerns healthy human subjects. The experiment in a line: Profile of Mood States (POMS): subjective effects. The following applies: fluoxetine 40 mg oral versus placebo.
From the text: as §1
Setting [4] is: ethanol 0.5 g/kg versus placebo (tonic water), FIG. 3.
Where [5] appears, read: fluoxetine 40 mg oral versus placebo, voxel t-test images (FIG. 1).

SMILES strings stand for the structures. Entries after “also recorded” stand apart in the source; their conditions may differ.

As to `CCO` [ethanol], in the assay with healthy human subjects [1] (setting [4]), the “rCMglu in frontal and temporal lobes, basal ganglia and limbic system” value was “affected”; the “rCMglu in the left hemisphere” value was “widespread increase”.

With `CNCCC(Oc1ccc(C(F)(F)F)cc1)c1ccccc1` (stereo not shown) [fluoxetine], in the assay with healthy human subjects [1] (setting [5]), the “relative glucose metabolism in bilateral amygdaloid complex, hippocampal formation and ventral striatum” value is “decreased relative glucose metabolism; also recorded: decrease in CMRglu”; the “relative glucose metabolism in right superior parietal lobe (Brodmann area 7)” value is “increased relative metabolism; also recorded: increase in metabolism”. The “Average global CMRglu” value with healthy human subjects [1] (fluoxetine 40 mg oral, FDG about 90 min after dosing, four healthy subjects, mean of all slices) is listed as 8.22±0.86 mg 100 g^1 min^−1. Besides, the “Average global CMRglu, fluoxetine scans versus placebo scans” value with healthy human subjects [1] (fluoxetine 40 mg oral, paired two-tailed t-test) was “not significantly different”. For the same molecule, in the assay with healthy human subjects [2] (after fluoxetine 40 mg oral), the “accuracy on the VMT (% correct)” value was 96.4±3.2 % correct. The “median reaction time on the VMT” value with healthy human subjects [2] (after fluoxetine 40 mg oral, ± s.d.) is 553 ± 64 ms. Moreover, in the assay on healthy human subjects [2] (fluoxetine 40 mg oral versus placebo), the “effects on reaction time or accuracy on the VMT” value is “no systematic effects”. Also, the “subjective effects as measured by the POMS” value in the assay with healthy human subjects [3] is reported as “no differences”.
